Source: BindingDB's records for PubMed 32092586 (Zhengzhou University, 2020)

Biological target: Ubiquitin carboxyl-terminal hydrolase 7 (Homo sapiens, UniProt Q93009)
Assay: Inhibition of human USP7 using Ub-AMC as substrate

Chain of Ubiquitin carboxyl-terminal hydrolase 7 (Q93009 whole entry): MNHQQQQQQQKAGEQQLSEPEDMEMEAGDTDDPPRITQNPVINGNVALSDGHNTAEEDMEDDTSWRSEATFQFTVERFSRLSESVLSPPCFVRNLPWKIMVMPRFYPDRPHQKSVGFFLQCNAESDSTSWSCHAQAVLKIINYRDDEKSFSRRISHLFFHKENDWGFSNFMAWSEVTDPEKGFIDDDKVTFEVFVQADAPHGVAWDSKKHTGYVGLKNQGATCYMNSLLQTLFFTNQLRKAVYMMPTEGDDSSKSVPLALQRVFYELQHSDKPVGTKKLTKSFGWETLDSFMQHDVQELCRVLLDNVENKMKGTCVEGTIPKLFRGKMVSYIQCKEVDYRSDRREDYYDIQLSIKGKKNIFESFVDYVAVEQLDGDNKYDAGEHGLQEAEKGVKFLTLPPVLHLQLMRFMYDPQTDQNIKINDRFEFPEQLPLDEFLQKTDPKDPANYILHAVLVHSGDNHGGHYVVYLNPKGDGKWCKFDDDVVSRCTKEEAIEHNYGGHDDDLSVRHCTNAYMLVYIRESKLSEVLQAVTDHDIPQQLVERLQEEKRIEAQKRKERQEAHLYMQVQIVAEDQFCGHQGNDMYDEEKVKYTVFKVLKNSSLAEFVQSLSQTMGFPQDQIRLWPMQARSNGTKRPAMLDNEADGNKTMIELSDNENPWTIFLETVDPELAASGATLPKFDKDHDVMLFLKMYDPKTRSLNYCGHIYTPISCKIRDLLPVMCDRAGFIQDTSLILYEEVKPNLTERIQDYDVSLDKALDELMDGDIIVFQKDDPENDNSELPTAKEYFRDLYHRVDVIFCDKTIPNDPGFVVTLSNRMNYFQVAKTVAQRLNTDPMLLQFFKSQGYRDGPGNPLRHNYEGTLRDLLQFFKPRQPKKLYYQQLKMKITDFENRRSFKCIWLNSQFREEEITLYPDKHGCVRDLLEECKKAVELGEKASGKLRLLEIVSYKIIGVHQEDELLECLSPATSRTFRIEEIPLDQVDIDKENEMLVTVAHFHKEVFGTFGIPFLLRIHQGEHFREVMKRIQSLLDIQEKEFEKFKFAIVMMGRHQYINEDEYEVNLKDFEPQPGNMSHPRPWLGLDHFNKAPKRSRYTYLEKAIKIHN

IC50: 90 nM
Compound: C[C@H](CC(=O)N1CCC(O)(Cn2cnc3cc(NC(=O)CCN4CCN(C)CC4)ccc3c2=O)CC1)c1ccccc1
